Each structure is given as a SMILES string.

This note sets out measurements from US20240264159A1 (priority 2021, published 2024).

The experiment concerns the target Spike SARS-CoV-2 foreign nanoparticles / coated host ACE2 nanoparticles (Severe acute respiratory syndrome coronavirus 2, UniProt P0DTC2, D614G). It counts as biochemical.

As to `C[C@@H]1O[C@@H](O[C@H]2C[C@@H](O)[C@]3(CO)[C@H]4[C@H](O)C[C@]5(C)[C@@H](C6=CC(=O)OC6)CC[C@]5(O)[C@@H]4CC[C@]3(O)C2)[C@H](O)[C@H](O)[C@H]1O` [ouabain], the “neutralization/blocking of fusion, coated host ACE2 nanoparticles” value is “Neutralization was further blocked”.
